Laboratory results reported in patent US11352352B2, “Aminopyrimidine compound, preparation method therefor and use thereof” (BEIJING ADAMADLE BIOTECHNOLOGY LIMITED LIABILITY COMPANY, priority 2017, dated 2022).

Tests used:
[1] = tested on: A-431; assay: Cell proliferation inhibition experiment, CellTiter-Glo (CTG) method; assay type: cell-based; settings: Homo sapiens, A-431, 72 h, A-431 cells, 3 days
Summary of the method: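 Luminescent ATP read-out (CellTiter-Glo) after 3-day compound exposure at 37 °C; a T0 plate was read on the day of dosing. Nine concentrations, 3-fold steps, triplicate wells: A-431 from 30 μM, NCI-H1975 and PC-9 from 1.111 μM. IC50 by non-linear S-curve regression.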

[2] = molecular target: T1, P-gp (Homo sapiens, UniProt P08183); assay: P-gp substrate evaluation experiment (MDCKII-MDR1 Transwell drug penetration test); assay type: in vitro ADME; settings: dog, MDCK-MDR1, pH 7.4; read-out: ER (Efflux Ratio)
T1 construct: expressed in transfected cells; host or cells: MDCKII-MDR1 (MDCKII canine kidney cells expressing MDR1)
Protocol: P-gp Substrate Evaluation Experiment
Cell Culture • 1) High glucose DMEM medium containing L-glutamine was used and 10% fetal bovine serum, 0.1 mg/mL streptomycin and 0.6 mg/mL penicillin were added. • 2) MDCKII-MDR1 was cultured in a T-75 cell culture bottle. The incubator was set at the condition of 37° C., 5% CO2 and 95% relative humidity. Cells could be inoculated in Transwell when the cell confluence reached 70-90%. • 3) Before cell plant, 50 μL cell culture medium was added to each well in the upper chamber of the Transwell, and […] cell culture medium was added to the lower chamber of the Transwell.
Inoculation of MDCKII-MDR1 Cells • 1) Cell suspension was added to the upper chamber of the 96-well Transwell plate with […] each well, and the final inoculation density was 5.45×10^5 cells/cm^2. • 2) The medium was changed 48 hours after inoculation, the culture was carried out for 4-7 days, and the medium was changed every other day.
Evaluation of Cell Monolayer Integrity • 1) After 4-7 days of culture, MDCKII-MDR1 and MDKII should merge and differentiate completely. At this time, they could be applied to penetration test. • 2) The resistance of cell monolayer was measured by a resistance meter (Millipore, USA) and the resistance of each well was recorded. • 3) After finishing the detection, the Transwell plate was put back into the incubator. • 4) Resistance value was calculated: Resistance measured (ohms)×layer area (cm^2)=TEER value (ohm·cm^2)
If TEER value was less than 42 ohms·cm^2, the well can not be used for penetration testing.
Drug Penetration Test • 1) The MDCKII-MDR1 Transwell plate was taken out from the incubator. The cell monolayer was rinsed with HBSS buffer (25 mM HEPES, pH 7.4) twice and incubated for 30 minutes at 37° C. • 2) The transport rate of compounds from the top to the bottom was determined. […] 70 μL supernatant was drawn, diluted with equal volume of water and then subjected to LC-MS/MS analysis. All samples were prepared in three parallel ways. • 6) The cell monolayer integrity after 2-hour incubation was evaluated by leakage of fluorescent yellow, HBSS (25 mM HEPES, pH 7.4) was used to dilute the stock solution of fluorescent yellow till the final concentration was 100 μM. 100 μL fluorescent yellow solution was added to each well in the upper chamber of the Transwell plate and 300 μL HBSS (25 mM HEPES, pH 7.4) was added to each well in the lower chamber of the Transwell plate. After incubation at 37° C. for 30 minutes, 80 μL solution was drawn respectively from each well in the upper and lower chamber to a new 96-well plate. The fluorescence was determined at 485 nm as excitation wavelength and 530 nm as emission wavelength by using a microplate reader.
Data calculation was carried out through Excel, the apparent permeability index (Papp, cm/s) of compounds was calculated through the formula shown as follow: […]
wherein, the membrane area in the formula is the membrane area of Transwell-96 plate (0.143 cm^2); the unit of incubation time is second (s).
Efflux ratio was calculated through the formula shown as follow: […]

[3] = tested on: PC-9; assay: Cell proliferation inhibition experiment, CellTiter-Glo (CTG) method; assay type: cell-based; settings: Homo sapiens, PC-9, 72 h, PC-9 cells, 3 days
Summary of the method: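 Cells in log-phase growth (viability above 90% by trypan blue) were seeded at 90 μL per well in black-walled, clear-bottom 96-well plates and incubated overnight at 37° C., 5% CO2. A T0 plate was read the next day. Test compounds were added at nine concentrations in triplicate with a solvent control. Viability was measured by CellTiter-Glo luminescence on EnVision, and IC50 came from non-linear S-curve fitting in GraphPad Prism 5.0.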

[4] = tested on: NCI-H1975; assay: as above; assay type: cell-based; settings: for IC50: Homo sapiens, NCI-H1975, 72 h, NCI-H1975 cells, CTG, 3 days; for A-431/NCI-H1975 Selectivity: ratio of A-431 IC50 to NCI-H1975 IC50
Summary of the method: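 NCI-H1975 cells with viability above 90% by trypan blue were seeded at 90 μL per well in black 96-well plates and incubated overnight at 37° C., 5% CO2. Compounds were added at nine concentrations in triplicate, and viability was measured with CellTiter-Glo luminescence on EnVision. IC50 came from non-linear S-curve fitting in GraphPad Prism 5.0.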

T1 sequence (P08183 whole entry): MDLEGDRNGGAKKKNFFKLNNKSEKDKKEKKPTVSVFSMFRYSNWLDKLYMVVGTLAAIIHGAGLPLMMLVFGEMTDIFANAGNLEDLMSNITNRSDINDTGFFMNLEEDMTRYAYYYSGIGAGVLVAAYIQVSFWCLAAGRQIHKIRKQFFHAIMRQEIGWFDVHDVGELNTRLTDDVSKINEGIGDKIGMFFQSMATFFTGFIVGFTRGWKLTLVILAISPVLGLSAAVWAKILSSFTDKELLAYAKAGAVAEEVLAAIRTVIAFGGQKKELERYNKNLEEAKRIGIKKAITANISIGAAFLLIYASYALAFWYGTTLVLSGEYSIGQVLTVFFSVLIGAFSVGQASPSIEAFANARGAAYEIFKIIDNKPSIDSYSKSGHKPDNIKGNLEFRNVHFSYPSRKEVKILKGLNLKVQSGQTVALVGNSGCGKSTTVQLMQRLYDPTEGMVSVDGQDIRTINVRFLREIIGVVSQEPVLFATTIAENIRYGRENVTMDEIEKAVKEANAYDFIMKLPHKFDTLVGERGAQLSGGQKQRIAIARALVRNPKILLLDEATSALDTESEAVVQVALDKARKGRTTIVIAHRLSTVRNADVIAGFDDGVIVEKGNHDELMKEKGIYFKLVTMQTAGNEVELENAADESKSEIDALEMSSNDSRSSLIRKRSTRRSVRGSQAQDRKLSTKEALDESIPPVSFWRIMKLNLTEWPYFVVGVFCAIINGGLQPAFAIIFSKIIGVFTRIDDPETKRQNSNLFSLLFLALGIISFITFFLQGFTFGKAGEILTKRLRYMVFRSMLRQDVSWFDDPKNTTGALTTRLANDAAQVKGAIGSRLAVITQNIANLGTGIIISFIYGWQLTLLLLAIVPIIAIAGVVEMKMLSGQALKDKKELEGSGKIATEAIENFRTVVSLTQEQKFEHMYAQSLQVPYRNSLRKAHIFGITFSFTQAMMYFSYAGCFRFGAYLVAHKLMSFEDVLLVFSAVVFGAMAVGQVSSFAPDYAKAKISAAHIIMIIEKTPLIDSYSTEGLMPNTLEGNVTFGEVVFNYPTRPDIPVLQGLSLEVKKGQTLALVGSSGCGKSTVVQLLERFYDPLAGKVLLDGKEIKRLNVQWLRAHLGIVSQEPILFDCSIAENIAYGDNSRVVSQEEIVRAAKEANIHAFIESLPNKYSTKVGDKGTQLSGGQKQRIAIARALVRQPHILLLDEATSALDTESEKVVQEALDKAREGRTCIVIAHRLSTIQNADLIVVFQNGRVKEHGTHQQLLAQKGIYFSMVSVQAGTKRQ

IC50 [1] [nM]	efflux ratio at 2 h [2]	IC50 [3] [nM]	IC50 [4] [nM]	SMILES	A-431/NCI-H1975 Selectivity [4]
680	15.3	4.9	9.4	C=CC(=O)Nc1cc(Nc2cc(-c3ccc4cnn(C)c4c3)ncn2)c(OC)cc1N1CCC(N2CCCC2)CC1 [compound 158]	72.4
591	34.4	23.2	12.6	C=CC(=O)Nc1cc(Nc2cc(-c3ccc4cnn(C)c4c3)ncn2)c(OC(F)F)cc1N1CCC(N2CCCC2)CC1 [compound 164]	46.9
584	23.1	21.5	6.8	C=CC(=O)Nc1cc(Nc2cc(-c3ccc4c(cnn4C)c3)ncn2)c(OC(F)F)cc1N1CCC(N(CC)CC)CC1 [compound 168]	85.9
954	43.9	16.3	18.6	C=CC(=O)Nc1c(N(C)CCN(C)C)cc(OC)c(Nc2cc(-c3ccc4cnn(C)c4c3)ncn2)c1F [compound 172]	51.3
1050	32.2	7.3	22.7	C=CC(=O)Nc1cc(Nc2cc(-c3ccc4cnn(C)c4c3)ncn2)c(OC)cc1N1CCC(N(C)C)CC1 [compound 173]	46.5
1080	3.98	4.8	21.2	C=CC(=O)Nc1cc(Nc2cc(-c3ccc4cnn(C)c4c3)ncn2)c(OC(F)F)cc1N(C)CCN(C)C [compound 176]	50.9
984	17.1	2.9	16.2	C=CC(=O)Nc1cc(Nc2cc(-c3ccc4cnn(C)c4c3)ncn2)c(OC)cc1N1CCC(N2CCCCC2)CC1 [compound 179]	60.7
894	3.07	3.8	25.1	C=CC(=O)Nc1cc(Nc2cc(-c3ccc4cnn(C)c4c3)ncn2)c(OC)cc1N(C)CCN(C)CC [compound 180]	35.6
982	6.51	7.2	8.1	C=CC(=O)Nc1cc(Nc2cc(-c3ccc4cnn(C)c4c3)ncn2)c(OC)cc1N1CCC(N2CCC(OC)C2)CC1 (stereo not shown) [compound 203]	121.2
773	5.87	12.1	8.1	C=CC(=O)Nc1cc(Nc2cc(-c3ccc4c(cnn4C)c3)ncn2)c(OC)cc1N1CCC(N2CC(OC)C2)CC1 [compound 206]	95.4

The remaining lines, values behind:

SMILES	IC50 [1] [nM]	efflux ratio at 2 h [2]	IC50 [3] [nM]	IC50 [4] [nM]	A-431/NCI-H1975 Selectivity [4]
C=CC(=O)Nc1cc(Nc2cc(-c3ccc4c(cnn4C)c3)ncn2)c(OC)cc1N(C)CCN1CCN(C)CC1 [compound 60]	2300	6.49	9.6	10.6	217.0
C=CC(=O)Nc1cc(Nc2cc(-c3ccc4c(cnn4C)c3)ncn2)c(OC)cc1N(C)CCN(CC)CC [compound 62]	1170	2.44	15.7	33.5	35.0
C=CC(=O)Nc1cc(Nc2nccc(-c3ccc4c(cnn4C)c3)n2)c(OC)cc1N1CCC(N2CCCC2)CC1 [compound 68]	921	8.98	15.3	14.7	62.7
C=CC(=O)Nc1cc(Nc2cc(-c3ccc4c(cnn4C)c3)ncn2)c(OC)cc1N(C)C1CCN(C2CCN(C)CC2)CC1 [compound 70]	1160	41.4	14.7	17.6	66.1
C=CC(=O)Nc1cc(Nc2cc(-c3ccc4c(cnn4C)c3)ncn2)c(OC)cc1N1CCN(CCOC)CC1 [compound 99]	886	1.54	43.2	9.8	90.4
C=CC(=O)Nc1cc(Nc2cc(-c3ccc4c(cnn4C)c3)ncn2)c(OC)cc1N1CCC(N2C[C@@H](C)N(C)[C@@H](C)C2)CC1 [compound 100]	654	20	15.3	5.7	114.7
C=CC(=O)Nc1cc(Nc2cc(-c3ccc4c(cnn4C)c3)ncn2)c(OC)cc1N1CCC(N2C[C@@H](C)O[C@@H](C)C2)CC1 [compound 103]	648	2.28	19.2	8	81.0
C=CC(=O)Nc1cc(Nc2cc(-c3ccc4c(cnn4C)c3)ncn2)c(OC)cc1OCCN(C)C [compound 104]	544	3.12	14.2	6	90.6
C=CC(=O)Nc1cc(Nc2cc(-c3ccc4c(cnn4C)c3)ncn2)c(OC)cc1N1CCC(N2CCCC2)CC1 [compound 108]	567	18.1	5.7	3.2	177.3
C=CC(=O)Nc1cc(Nc2cc(-c3ccc4c(cnn4C)c3)ncn2)c(OC(F)F)cc1N1CCN(CCN(C)C)CC1 [compound 115]	533	41.9	9	5.3	100.5
C=CC(=O)Nc1cc(Nc2cc(-c3ccc4c(cnn4CC)c3)ncn2)c(OC)cc1N1CCN(CCN(C)C)CC1 [compound 116]	654	67.9	8.2	9.1	71.9
C=CC(=O)Nc1cc(Nc2cc(-c3ccc4c(cnn4C)c3)ncn2)c(OC)cc1N1CCC(N2CCN(C(C)=O)CC2)CC1 [compound 129]	746	55.7	13.1	8	93.3
COc1cc(N(C)CCN(C)C)c(NC(=O)/C=C/CN(C)C)cc1Nc1cc(-c2ccc3c(cnn3C)c2)ncn1 [compound 131]	578	51.7	14.8	9.6	60.2
C=CC(=O)Nc1cc(Nc2cc(-c3ccc4c(cnn4C)c3)ncn2)c(OC)cc1N(C)CCN(C)C(C)C [compound 138]	946	2.17	12.3	16.8	56.3
C=CC(=O)Nc1cc(Nc2cc(-c3ccc4c(cnn4C)c3)ncn2)c(OC)cc1N1CCC(N2CCCCC2)CC1 [compound 144]	572	11.6	16.4	6.8	84.1
C=CC(=O)Nc1cc(Nc2cc(-c3ccc4cnn(C)c4c3)ncn2)c(OC)cc1N1CCC(N2C[C@@H](C)O[C@@H](C)C2)CC1 [compound 155]	874	0.93	6	13.6	64.2
